The results in this text go back to US20150250864A1, “ANTI-CANCER VACCINES” (Board of Regents, The University of Texas System, priority 2012, published 2015).

In experiment [1] the test system is T cells from HLA A2+ normal donor. Description: IFN-γ ELISPOT, T cells stimulated by 9-mer peptide pool-pulsed homologous B cells. The format is cell-based, human. From the text: FIGS. 12A-B. Identification of HLA-A2 T-cell specific peptides using anti-human IFN-γ ELISPOT with T cells from one HLA A2^+ normal donor. (FIG. 12A) T cells, stimulated by peptide pool-pulsed homologous B cells three (3rd T cells) or four (4th T cells) times were reactive with two pools from a HERV-K HLA A2^+9-mer peptide library (pool #1-11 and pool #12-22). NP is no peptide control. (FIG. 12B) Photographs of actual plates for FIG. 12A.
FIGS. 13A-B. Identification of HLA-A2 T cell specific epitopes using anti-human IFN-γ ELISPOT. T cells obtained from PBMC stimulated by peptide pool-pulsed homologous B cells three (3rd T cells) or four (4th T cells) times, were reactive with individual peptides. (FIG. 13A) Image of ELISPOT. (FIG. 13B) The code of peptides evaluated in ELISPOT assays.
FIGS. 14A-C. Summary of number of ELISPOTs from each individual peptide. Numbers of spots detected (pool 1-11, pool 12-22, and pool 23-33) in ELISPOTS with a single peptide are shown. NP contains no peptide (as control). (FIG. 14A) Summary of number of ELISPOTs from each individual peptide including #1, #2, #3, #5, #6, #7, #8, and #9, and peptide pool #1 to #11. (FIG. 14B) Summary of number of ELISPOTs from each individual peptide including #12, #13, #14, #15, #17, #18, #19, #20, #22 and peptide pool #12 to #22. (FIG. 14C) Summary of number of ELISPOTs from each individual peptide including #23, #24, #25, #26, #27, #28, #30, #31, #32, #33, and peptide pool #23 to #33. 4th T cells indicated the T cells had been stimulated with peptide pool 4 times and 3rd T cells indicated the T cells had been stimulated with peptide pool 3 times.
The inventor used epitope mapping to identify responses to HERV-K peptides in breast cancer patients. They chemically synthesized a HERV-K env nine amino acid (9mer) peptide library (33 HLA A2 restricted peptides) and overlapping 15mer peptide library (144 peptides). Preliminary research has identified two pools from the HERV-K env 9mer peptide library that contain potential CD8+ epitopes, using interferon gamma (IFN-γ) enzyme-linked immunosorbent spot (ELISPOT) assay with T cells from one HLA A2^+ normal donor which was stimulated with the 9mer peptide pool-pulsed homologous dendritic cells (DCs).
HLA-2+ patients were identified by flow cytometry using anti-A2 antibody. Activated B cells were cultured from PBMCs stimulated with irradiated 3T3-CD40L-expressing fibroblasts. Normal donor CD8+ T-cell lines were obtained from PBMCs stimulated with autologous activated B cells pulsed with peptide pools (peptides are in 3 pools: #1-11, #12-22, and #23-33); the stimulation was repeated for 3-4 cycles. HERV-K specific T cells generated from normal donor lines were tested for peptide reactivity using IFN-γ ELISPOT assays (FIGS. 12A-B).

The next experiment relates to IVS cells. The experiment is described as follows: IFN-γ ELISPOT with IVS cells (DC pulsed once with HERV-K protein) against MAPs, 9-mer pools or single peptides. Type of experiment: cell-based, human. Conditions: donor 449731, IVS cells, FIG. 15C. From the text:
FIGS. 15A-C. ELISPOT was employed to determine the production of IFN-γ in twelve 15-mer small pools. (FIG. 15A) Numbers of spots detected in multiple pools are shown for a breast cancer patient diagnosed with IDC (Acc 30) or a patient diagnosed with teratoma (Acc 32). (FIG. 15B) Numbers of spots detected in multiple pools are shown for a patient diagnosed with left breast minute foci of sugg papillary lesion (967092) or IDC (Acc 31). SP 1-12 represents small peptide pools #1-12. Pool 0 contains no peptides (as control). (FIG. 15C) T cells obtained from PBMC stimulated once with HERV-K-specific pulsed homologous B cells were reactive with individual MAPs, pools of 9-mer peptides, or single 9-mer peptides. NP: no peptide control.
IVS were obtained from two donor pairs stimulated with DC pulsed once with HERV-K protein. After 7 days (1-week stimulation), IVS cells were used for ELISPOT with 15-mer peptides (FIGS. 15A-B) or MAPs including MAP73, MAP75-76, MAP82-93, MAP 92-93, and MAP95-96 or 9 mer peptide pools (#1 to 5, #5 to 10, #1 to 10, #12 to 17, #18 to 22) or single peptides (#3, #18, and #4.11; FIG. 15C). Candidate epitopes (#4 and #11) were further identified using IVS generated from DC obtained from cancer patients stimulated with HERV-K antigen in this study.

For IINLILILV [HERVK-18], the “CD8 T epitope for HLA-A2 donors” value in experiment [1] is listed as “may be CD8 T epitopes”. The “IFN-γ ELISPOT spots with individual peptide” value in experiment [1] (T cell stimulated 3 times with peptide pool #12 to 22) and in experiment [1] (T cell stimulated 4 times with peptide pool #12 to 22) was “numerous spots” throughout. Also, the “HERV-K specific T cell epitope (IFN-γ ELISPOT)” value with IVS cells is on record as “HERV-K specific T cell epitopes”.

As to YMLVVGNIV [HERVK-3], in experiment [1], the “CD8 T epitope for HLA-A2 donors” value is given as “may be CD8 T epitopes”. The “IFN-γ ELISPOT spots with individual peptide” value in experiment [1] (T cell stimulated 4 times with peptide pool #1 to 11) was “numerous spots”. The “HERV-K specific T cell epitope (IFN-γ ELISPOT)” value with IVS cells was “HERV-K specific T cell epitopes”.
